Measured values from US9701681B2, “Fused ring heteroaryl compounds and their use as Trk inhibitors” (CMG Pharmaceutical Co., Ltd., priority 2014, dated 2017).

Key:
TF-1 cells = test: Cell proliferation assay (TF-1); settings: 10 ng/ml human β-NGF, 72 hours exposure, read-out: IC50 (nM) Cell-based assay (TF-1)
Experimental: Doxorubicin was purchased from Sigma Aldrich (D1515). All compounds were diluted in DMSO (Sigma Aldrich, D2650). AlamarBlue® cell viability reagent was purchased from Thermo Scientific (88952). CellTiter 96® AQueous One Solution Cell proliferation assay was purchased from Promega. KM12-luc cells were obtained from JCRB (National Institute of Health Sciences, Tokyo, Japan). They were maintained in DMEM medium (GIB-11965-118) supplemented with 10% fetal bovine serum (Gibco, 16000-044) and MEM Non-Essential Amino Acids Solution (Thermo Scientific, 11140-050). TF-1 cells were obtained from ATCC. They were maintained in RPMI medium (GIB-A10491) supplemented with 10% fetal bovine serum (Gibco, 16000-044), GM-CSF (Thermo Scientific, 11140-050), and β-NGF (R&D systems). Trypsin/EDTA was purchased from Gibco (GIB-25300-054, 0.05%). 96-well plates were purchased from Corning Inc.
The proliferation assay was performed for Chemical Compounds 1-61 s in media supplemented with 10% FBS, using AlamarBlue® cell viability reagent or CellTiter 96® AQueous One Solution Cell proliferation assay kit. Cells were cultured in humidified 37° C. incubator with 5% CO2. To evaluate the antiproliferation activity of compounds, TF-1 cells were adjusted to GM-CSF free media (RPMI, 10% FBS, and 1% penicillin-streptomycin) for 16 hr and were seeded in 96-well plates at 30,000 cells/well with medium (RPMI, 10% FBS, 1% penicillin-streptomycin and 10 ng/ml human β-NGF). KM12-luc were seeded at 10,000 cells per well into 96-well plates. After overnight incubation, serial dilutions of compounds were added to triplicate wells, and cells were exposed for 72 hours. The final concentration of DMSO was adjusted to 0.5% in media. Quantitation of cell growth was assessed using two kinds of reagent. 20 ul of AlamarBlue® reagent in an amount equal to 10% of the culture volume was added to each well and were incubated in humidified 37° C. incubator with 5% CO2 for 2 hr. Otherwise, 20 ul of CellTiter 96® reagent was added to each well and were incubated in the same conditions as previously described. Data were plotted, and GI50 values were calculated using GraphPad software. Table 1 below includes the results of the assays.

KM12-luc cells = test: Cell proliferation assay (KM12); settings: 72 hours exposure, read-out: IC50 (nM) Cell-based assay (KM12)
In short: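 KM12-luc cells were seeded at 10,000/well. TF-1 cells were first held 16 hr without GM-CSF, then seeded at 30,000/well with 10 ng/ml human β-NGF. Cells were exposed in triplicate to serial dilutions for 72 h in 10% FBS with 0.5% DMSO at 37 °C, read by AlamarBlue or CellTiter 96 for 2 hr, and GI50 was fitted.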

TRK A, B & C kinase = target: T1, TRK A, B & C kinase; test: TRK A, B & C kinase assay (ADP-Glo / HTRF KinEASE-TK); type: biochemical; settings: ADP-Glo or HTRF KinEASE-TK kit, isoform not specified, read-out: IC50 (nM) Enzymatic assay
T1 construct: fused on or other part: Carna's Trk kinases are usually GST-tagged cytoplasmic domains
In short: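 ADP-Glo: TrkA/B/C (0.4/0.5/3 ng/ul) with poly(Glu,Tyr), 1 h at 30° C, luminescence readout. HTRF: TRKA/B/C (0.3/0.1/0.03 ng/ul) at ATP 14.7/4.77/25.6 uM with TK-substrate, compound 0–100 nM for 40 min at RT, then detection by 665/620 ratio. Both give IC50 by curve fit.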

Compound | IC50 (TRK A, B & C kinase) | IC50 (TF-1 cells) | IC50 (KM12-luc cells)
CC(C)(C)c1nnc(-c2cnn3ccc(N4CCCC4c4cc(F)ccc4F)nc23)s1 (stereo not drawn) [Chemical Compound 10, 2-tert-butyl-5-(5-(2-(2,5-difluorophenyl)pyrrolidin-1-yl)pyrazolo[1,5-a]pyrimidin-3-yl)-1,3,4-thiadiazole] | < 10 nM | < 10 nM | < 10 nM
CC(C)c1nnc(-c2cnn3ccc(N4CCCC4c4cncc(F)c4)nc23)s1 (stereo not drawn) [Chemical Compound 13, 2-(5-(2-(5-fluoropyridin-3-yl)pyrrolidin-1-yl)pyrazolo[1,5-a]pyrimidin-3-yl)-5-isopropyl-1,3,4-thiadiazole] | < 10 nM | < 100 nM | < 100 nM
CC(C)(C)c1nnc(-c2cnn3ccc(N4C[C@@H](F)C[C@H]4c4cc(F)ccc4F)nc23)o1 [Chemical Compound 27, 2-tert-butyl-5-(5-((2S,4S)-2-(2,5-difluorophenyl)-4-fluoropyrrolidin-1-yl)pyrazolo[1,5-a]pyrimidin-3-yl)-1,3,4-oxadiazole] | > 100 nM | > 1000 nM | > 1000 nM
CC(C)c1nnc(-c2cnn3ccc(N4CCCC4c4cc(F)ccc4F)nc23)s1 (stereo not drawn) [Chemical Compound 6, 2-(5-(2-(2,5-difluorophenyl)pyrrolidin-1-yl)pyrazolo[1,5-a]pyrimidin-3-yl)-5-isopropyl-1,3,4-thiadiazole] | < 10 nM | < 10 nM | < 10 nM

Further lines, with some results ahead:

IC50 (TRK A, B & C kinase) | Compound | IC50 (TF-1 cells) | IC50 (KM12-luc cells)
< 10 nM | O=C(/C=C/c1cnn2ccc(N3CCC[C@@H]3c3cc(F)ccc3F)nc12)N1CCNCC1 [Chemical Compound 50, (R,E)-3-(5-(2-(2,5-difluorophenyl)pyrrolidin-1-yl)pyrazolo[1,5-a]pyrimidin-3-yl)-1-(piperazin-1-yl)prop-2-en-1-one] | < 100 nM | < 10 nM
< 10 nM | Fc1ccc(F)c(C2CCCN2c2ccn3ncc(-c4nnc(C5CC5)o4)c3n2)c1 (stereo not drawn) [Chemical Compound 7, 2-cyclopropyl-5-(5-(2-(2,5-difluorophenyl)pyrrolidin-1-yl)pyrazolo[1,5-a]pyrimidin-3-yl)-1,3,4-oxadiazole] | < 10 nM | < 100 nM
< 10 nM | CCc1nnc(-c2cnn3ccc(N4CCCC4c4cc(F)ccc4F)nc23)o1 (stereo not drawn) [Chemical Compound 3, 2-(5-(2-(2,5-difluorophenyl)pyrrolidin-1-yl)pyrazolo[1,5-a]pyrimidin-3-yl)-5-ethyl-1,3,4-oxadiazole] | < 10 nM | < 100 nM
